Data from US20230414610A1, “THERAPIES FOR CANCER USING SMALL MOLECULES THAT BIND TO AND INHIBIT RAIL INTERACTING PROTEINS” (Texas Tech University System, priority 2020, published 2023).

Tested on: breast cancer cells
Assay: Breast cancer cell inhibition in vitro
Type: cell-based
Conditions: by inhibiting RLIP

N#Cc1nc(-c2ccccn2)c2c(c1-c1ccccc1)CCC2 [TTUHSC-SS-E4]
killing of breast cancer cells: kill breast cancer cells at low concentrations

[H]/N=C(\N)Nc1nc(-c2ccccc2)c2cc(F)ccc2n1 [TTUHSC-SS-B9]
killing of breast cancer cells: kill breast cancer cells at low concentrations

c1ccc(-c2nnc(NCc3nc4ccccc4[nH]3)c3ccccc23)cc1 [TTUHSC-SS-C4]
killing of breast cancer cells: kill breast cancer cells at low concentrations

O=c1cc(COc2cccc(-n3cnnn3)c2)c2ccccc2[nH]1 [TTUHSC-SS-C2]
killing of breast cancer cells: kill breast cancer cells at low concentrations

O=C(N/N=C1/c2ccccc2-c2nc3nonc3nc21)c1ccccc1O [TTUHSC-SS-A4]
killing of breast cancer cells: kill breast cancer cells at low concentrations
